The NIST ThermoML archive (doi:10.1021/je700428f)

Assay: xn = mol fraction of the nth substance listed
Details: 101 kPa, Liquid; for viscosity: Capillary tube (Ostwald / Ubbelohde) method

CCCCCCCCC [nonane] + COC(C)(C)C
Details | mass density [kg/m3] | viscosity [mPa·s]
308.15 K, x2 = 0 | 706.011 | –
308.15 K, x2 = 0.1085 | 706.97 | –
308.15 K, x2 = 0.1722 | 707.6 | –
308.15 K, x2 = 0.3037 | 709.03 | –
308.15 K, x2 = 0.4011 | 710.36 | –
308.15 K, x2 = 0.5008 | 711.93 | –
308.15 K, x2 = 0.6005 | 713.77 | –
308.15 K, x2 = 0.6992 | 715.84 | –
308.15 K, x2 = 0.6998 | – | 0.386
308.15 K, x2 = 0.7975 | – | 0.357
308.15 K, x2 = 0.8005 | 718.35 | –
308.15 K, x2 = 0.8925 | 721.04 | –
313.15 K, x2 = 0 | 702.076 | 0.555
313.15 K, x2 = 0.1006 | – | 0.529
313.15 K, x2 = 0.1085 | 702.96 | –
313.15 K, x2 = 0.1722 | 703.52 | –
313.15 K, x2 = 0.2026 | – | 0.498
313.15 K, x2 = 0.2995 | – | 0.472
313.15 K, x2 = 0.3037 | 704.82 | –
313.15 K, x2 = 0.4011 | 706.05 | –
313.15 K, x2 = 0.4045 | – | 0.446
313.15 K, x2 = 0.5003 | – | 0.421
313.15 K, x2 = 0.5008 | 707.49 | –
313.15 K, x2 = 0.6005 | 709.18 | –
313.15 K, x2 = 0.6035 | – | 0.391
313.15 K, x2 = 0.6992 | 711.09 | –
313.15 K, x2 = 0.6998 | – | 0.367
313.15 K, x2 = 0.8005 | 713.41 | –
313.15 K, x2 = 0.8925 | 715.91 | –
318.15 K, x2 = 0 | 698.124 | 0.522
318.15 K, x2 = 0.1006 | – | 0.498
318.15 K, x2 = 0.1085 | 698.89 | –
318.15 K, x2 = 0.1722 | 699.42 | –
318.15 K, x2 = 0.2026 | – | 0.471
318.15 K, x2 = 0.2995 | – | 0.446
318.15 K, x2 = 0.3037 | 700.6 | –
318.15 K, x2 = 0.4011 | 701.71 | –
318.15 K, x2 = 0.4045 | – | 0.422
318.15 K, x2 = 0.5003 | – | 0.401
318.15 K, x2 = 0.5008 | 703.01 | –
318.15 K, x2 = 0.6005 | 704.56 | –
318.15 K, x2 = 0.6035 | – | 0.372
318.15 K, x2 = 0.6992 | 706.3 | –
318.15 K, x2 = 0.6998 | – | 0.348
318.15 K, x2 = 0.8005 | 708.45 | –
318.15 K, x2 = 0.8925 | 710.72 | –
323.15 K, x2 = 0 | 694.151 | 0.493
323.15 K, x2 = 0.1006 | – | 0.47
323.15 K, x2 = 0.1085 | 694.83 | –
323.15 K, x2 = 0.1722 | 695.3 | –
323.15 K, x2 = 0.2026 | – | 0.446
323.15 K, x2 = 0.2995 | – | 0.423
323.15 K, x2 = 0.3037 | 696.34 | –
323.15 K, x2 = 0.4011 | 697.34 | –
323.15 K, x2 = 0.4045 | – | 0.402
323.15 K, x2 = 0.5003 | – | 0.382
323.15 K, x2 = 0.5008 | 698.51 | –
323.15 K, x2 = 0.6005 | 699.89 | –
323.15 K, x2 = 0.6035 | – | 0.354
323.15 K, x2 = 0.6992 | 701.46 | –
323.15 K, x2 = 0.8005 | 703.35 | –
323.15 K, x2 = 0.8925 | 705.48 | –
328.15 K, x2 = 0 | 690.165 | 0.466
328.15 K, x2 = 0.1006 | – | 0.445
328.15 K, x2 = 0.1085 | 690.74 | –
328.15 K, x2 = 0.1722 | 691.16 | –
328.15 K, x2 = 0.2026 | – | 0.424
328.15 K, x2 = 0.2995 | – | 0.402
328.15 K, x2 = 0.3037 | 692.06 | –
328.15 K, x2 = 0.4011 | 692.94 | –
328.15 K, x2 = 0.4045 | – | 0.383
328.15 K, x2 = 0.5003 | – | 0.364
328.15 K, x2 = 0.5008 | 693.97 | –
328.15 K, x2 = 0.6005 | 695.19 | –
328.15 K, x2 = 0.6992 | 696.59 | –
328.15 K, x2 = 0.8005 | 698.27 | –
333.15 K, x2 = 0 | 686.154 | 0.442
333.15 K, x2 = 0.1006 | – | 0.423
333.15 K, x2 = 0.1085 | 686.64 | –
333.15 K, x2 = 0.1722 | 686.99 | –
333.15 K, x2 = 0.2026 | – | 0.404
333.15 K, x2 = 0.2995 | – | 0.383
333.15 K, x2 = 0.3037 | 687.76 | –
333.15 K, x2 = 0.4011 | 688.5 | –
333.15 K, x2 = 0.4045 | – | 0.365
333.15 K, x2 = 0.5003 | – | 0.347
333.15 K, x2 = 0.5008 | 689.39 | –
333.15 K, x2 = 0.6005 | 690.45 | –
333.15 K, x2 = 0.6992 | 691.66 | –
333.15 K, x2 = 0.8005 | 693.14 | –
338.15 K, x2 = 0 | 682.116 | 0.42
338.15 K, x2 = 0.1006 | – | 0.402
338.15 K, x2 = 0.1085 | 682.52 | –
338.15 K, x2 = 0.1722 | 682.79 | –
338.15 K, x2 = 0.2026 | – | 0.386
338.15 K, x2 = 0.2995 | – | 0.366
338.15 K, x2 = 0.3037 | 683.42 | –
338.15 K, x2 = 0.4011 | 684.02 | –
338.15 K, x2 = 0.4045 | – | 0.348
338.15 K, x2 = 0.5008 | 684.76 | –
338.15 K, x2 = 0.6005 | 685.66 | –
338.15 K, x2 = 0.6992 | 686.68 | –
338.15 K, x2 = 0.8005 | 687.95 | –
343.15 K, x2 = 0 | 678.06 | 0.399
343.15 K, x2 = 0.1006 | – | 0.383
343.15 K, x2 = 0.1085 | 678.37 | –
343.15 K, x2 = 0.1722 | 678.57 | –
343.15 K, x2 = 0.2026 | – | 0.368
343.15 K, x2 = 0.2995 | – | 0.351
343.15 K, x2 = 0.3037 | 679.05 | –
343.15 K, x2 = 0.4011 | 679.52 | –
343.15 K, x2 = 0.5008 | 680.11 | –
343.15 K, x2 = 0.6005 | 680.83 | –
348.15 K, x2 = 0 | 673.979 | 0.38
348.15 K, x2 = 0.1006 | – | 0.366
348.15 K, x2 = 0.1085 | 674.19 | –
348.15 K, x2 = 0.1722 | 674.31 | –
348.15 K, x2 = 0.2026 | – | 0.352
348.15 K, x2 = 0.3037 | 674.64 | –
348.15 K, x2 = 0.4011 | 674.98 | –
353.15 K, x2 = 0 | 669.872 | 0.362
353.15 K, x2 = 0.1006 | – | 0.35
353.15 K, x2 = 0.1085 | 669.95 | –
353.15 K, x2 = 0.1722 | 670.02 | –
353.15 K, x2 = 0.2026 | – | 0.338
353.15 K, x2 = 0.3037 | 670.19 | –
353.15 K, x2 = 0.4011 | 670.38 | –
358.15 K, x2 = 0 | 665.73 | 0.346
358.15 K, x2 = 0.1006 | – | 0.335
358.15 K, x2 = 0.1085 | 665.71 | –
358.15 K, x2 = 0.1722 | 665.7 | –
358.15 K, x2 = 0.3037 | 665.7 | –
358.15 K, x2 = 0.4011 | 665.75 | –
363.15 K, x2 = 0 | 661.557 | –
363.16 K, x2 = 0.1085 | 661.43 | –
363.16 K, x2 = 0.1722 | 661.33 | –
363.16 K, x2 = 0.3037 | 661.17 | –
